These are literature values, as cited in publication PMC12491383, “Organ and tumour dosimetry of ^177Lu-rhPSMA-10.1, a novel PSMA-targeted therapy: results from a Phase I trial” (European Journal of Nuclear Medicine and Molecular Imaging, 2025).

On the set-up of series [1]: method as in PMID 38050121. Conditions: cited from earlier work.
Details of series [2]: method as in PMID 34887335. Conditions: reported data; cited from earlier work.

Take `O=C([O-])CN1CCN(CC(=O)[O-])CCN(CC(=O)NCC2CCC(C(=O)N[C@@H](Cc3ccc4ccccc4c3)C(=O)NCCCC[C@H](NC(=O)N[C@@H](CCC(=O)O)C(=O)O)C(=O)O)CC2)CCN(CC(=O)[O-])CC1.[177Lu+3]` (stereo partly shown) [^177Lu-PSMA-617, lutetium Lu 177 vipivotide tetraxetan]: in series [1] (VISION dosimetry substudy), the “Absorbed dose to the bone marrow” value is given as 0.035 Gy/GBq. The “Absorbed dose in the salivary glands” value in series [1] (VISION substudy) was 0.63 Gy/GBq. The “Absorbed dose in the kidneys” value in series [1] (dosimetry substudy of the Phase III VISION trial) is 0.43 Gy/GBq. Moreover, the Tumour effective half-life in series [2] was 61 h.
